Results published in PubChem BioAssay (NCI).
“And” between values parts separate entries of the source, which are not always exact repeats. Equal values may be shown once.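 A five-concentration, 48-hour dose response in 96-well plates underlies each endpoint, interpolated linearly between surrounding concentrations. Here, GI50 denotes the concentration required for 50% inhibition of growth. TGI: concentration producing complete growth inhibition.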 Where a SMILES comes first, the peptide text is derived from it. Bridges are numbered along the chain shown (N, C = ends).

Assays:
Experiment in all cases: inhibition of tumour cell growth, NCI panel, 48 h
A498 renal = system: A498 renal
CAKI-1 renal = system: CAKI-1 renal
CCRF-CEM leukemia = system: CCRF-CEM leukemia
MCF7 breast = system: MCF7 breast
MDA-MB-231 breast = system: MDA-MB-231 breast
NCI-H23 lung = system: NCI-H23 lung
OVCAR-4 ovarian = system: OVCAR-4 ovarian
RPMI-8226 leukemia = system: RPMI-8226 leukemia
SN12C renal = system: SN12C renal
EKVX NSCLC = system: EKVX NSCLC

CC(C)=CC(=O)OC1C2C(C)=CC(=O)C(O)C2(C)C2C3(O)OCC24C(CC(=O)OC14)C(C)C3O (stereo not drawn)
GI50 (A498 renal): 0.142 µM
TGI (A498 renal): 0.288 µM and 0.511 µM
GI50 (CAKI-1 renal): 0.245 µM and 1.13 µM and 0.293 µM
GI50 (CCRF-CEM leukemia): 0.02 µM
TGI (CCRF-CEM leukemia): 0.109 µM and 0.177 µM and 0.253 µM
GI50 (MCF7 breast): 0.00159 µM
TGI (MCF7 breast): 0.00664 µM
TGI (MDA-MB-231 breast): 0.0596 µM and 0.0264 µM
GI50 (NCI-H23 lung): 0.02 µM
GI50 (OVCAR-4 ovarian): 0.02 µM
GI50 (RPMI-8226 leukemia): 0.02 µM
TGI (RPMI-8226 leukemia): 0.028 µM and 0.0291 µM
GI50 (SN12C renal): 0.0133 µM and 0.0406 µM
TGI (SN12C renal): 0.245 µM and 0.089 µM and 0.327 µM

C[C@@H]([C@H]1CC[C@@]2(C)[C@@H]3CC[C@@H]4C(=CC3=CC[C@]12C)CC[C@H](N(C)C)C4(C)C)N(C)C
TGI (CAKI-1 renal): > 100 µM
TGI (CCRF-CEM leukemia): > 100 µM
TGI (EKVX NSCLC): > 100 µM
TGI (MCF7 breast): > 100 µM
TGI (MDA-MB-231 breast): > 100 µM
TGI (NCI-H23 lung): > 100 µM
TGI (OVCAR-4 ovarian): > 100 µM
TGI (RPMI-8226 leukemia): > 100 µM
TGI (SN12C renal): > 100 µM

CCC1OC2(C)CC(C#N)(C#N)C1(C#N)C(=N)O2 (stereo not drawn)
TGI (A498 renal): > 100 µM
TGI (CAKI-1 renal): > 100 µM
TGI (CCRF-CEM leukemia): > 100 µM
TGI (EKVX NSCLC): > 100 µM
TGI (MCF7 breast): > 100 µM
TGI (MDA-MB-231 breast): > 100 µM
TGI (NCI-H23 lung): > 100 µM
TGI (SN12C renal): > 100 µM

CN(C)Cc1cc(/C=C/C(=O)c2ccc(Br)cc2)cc(CN(C)C)c1O
TGI (A498 renal): 27.7 µM
TGI (CAKI-1 renal): 23.8 µM
TGI (CCRF-CEM leukemia): 25.4 µM
TGI (EKVX NSCLC): 55.2 µM
TGI (MCF7 breast): 50.5 µM
TGI (MDA-MB-231 breast): 40 µM
TGI (RPMI-8226 leukemia): 26.5 µM
TGI (SN12C renal): 32.3 µM

COc1c(NC(C)=O)c2ccccc2c2ccccc12
TGI (A498 renal): > 100 µM
TGI (CCRF-CEM leukemia): > 100 µM
TGI (EKVX NSCLC): > 100 µM
TGI (MDA-MB-231 breast): > 100 µM
TGI (NCI-H23 lung): > 100 µM
TGI (OVCAR-4 ovarian): > 100 µM
TGI (SN12C renal): > 100 µM

O=c1cc(-c2ccccc2)oc2cc(OCCCCCCCCCCOc3ccc4c(=O)cc(-c5ccccc5)oc4c3)ccc12
TGI (CAKI-1 renal): > 100 µM
TGI (CCRF-CEM leukemia): > 100 µM
TGI (EKVX NSCLC): > 100 µM
TGI (NCI-H23 lung): > 100 µM
TGI (OVCAR-4 ovarian): > 100 µM
TGI (RPMI-8226 leukemia): > 100 µM
TGI (SN12C renal): > 100 µM

COc1ccc(-c2nc(-c3cnccn3)n(C/C=C/c3ccccc3)n2)cc1
TGI (CCRF-CEM leukemia): > 100 µM
TGI (MCF7 breast): > 100 µM
TGI (MDA-MB-231 breast): > 100 µM
TGI (NCI-H23 lung): > 100 µM
TGI (OVCAR-4 ovarian): 98.6 µM
TGI (RPMI-8226 leukemia): > 100 µM
TGI (SN12C renal): > 100 µM

Oc1c(NCn2nc(CCCCCCCCc3nn(CNc4ccc5ccccc5c4O)c(=S)o3)oc2=S)ccc2ccccc12
TGI (A498 renal): > 100 µM
TGI (CAKI-1 renal): > 100 µM
TGI (EKVX NSCLC): > 100 µM
TGI (MCF7 breast): > 100 µM
TGI (MDA-MB-231 breast): > 100 µM
TGI (NCI-H23 lung): > 100 µM
TGI (OVCAR-4 ovarian): > 100 µM
TGI (RPMI-8226 leukemia): > 100 µM
TGI (SN12C renal): > 100 µM

COc1ccc(Cn2c(=O)c(OS(=O)(=O)C(F)(F)F)c(C)c3cc4ccccc4cc32)cc1
TGI (CAKI-1 renal): > 100 µM
TGI (CCRF-CEM leukemia): > 100 µM
TGI (EKVX NSCLC): > 100 µM
TGI (MCF7 breast): > 100 µM
TGI (MDA-MB-231 breast): > 100 µM
TGI (NCI-H23 lung): > 100 µM
TGI (OVCAR-4 ovarian): > 100 µM
TGI (SN12C renal): > 100 µM

COC(=O)c1ccc(C)cc1C1CN=NC12Cc1cccc(C)c1C2=O (stereo not drawn)
TGI (CAKI-1 renal): > 100 µM
TGI (CCRF-CEM leukemia): 92.8 µM
TGI (EKVX NSCLC): > 100 µM
TGI (MCF7 breast): > 100 µM
TGI (MDA-MB-231 breast): > 100 µM
TGI (NCI-H23 lung): > 100 µM
TGI (OVCAR-4 ovarian): > 100 µM
TGI (RPMI-8226 leukemia): 49.8 µM
TGI (SN12C renal): > 100 µM

COC(=O)C1CCC(=O)NCCCCC(NC(=O)C(N)CC(=O)O)C(=O)N1 (stereo not drawn) (H-Asp-Lys-Glu-OMe; lactam 2-3; configuration not given here)
TGI (CAKI-1 renal): > 100 µM
TGI (CCRF-CEM leukemia): > 100 µM
TGI (EKVX NSCLC): > 100 µM
TGI (MCF7 breast): > 100 µM
TGI (MDA-MB-231 breast): > 100 µM
TGI (NCI-H23 lung): > 100 µM
TGI (OVCAR-4 ovarian): > 100 µM
TGI (RPMI-8226 leukemia): > 100 µM
TGI (SN12C renal): > 100 µM

Cc1cc(C)c(S(=O)(=O)N(CCCCCN)OCCCN)c(C)c1
TGI (CAKI-1 renal): 31.2 µM
TGI (CCRF-CEM leukemia): 45.6 µM
TGI (EKVX NSCLC): 30.6 µM
TGI (MCF7 breast): 33.5 µM
TGI (MDA-MB-231 breast): 49 µM
TGI (NCI-H23 lung): 33.4 µM
TGI (OVCAR-4 ovarian): 37.8 µM
TGI (RPMI-8226 leukemia): 30.6 µM
TGI (SN12C renal): 33.3 µM

C/C(N=NS(=O)(=O)c1c(C)cc(C)cc1C)=C1\C=CC=CN1O
TGI (A498 renal): > 100 µM
TGI (CAKI-1 renal): > 100 µM
TGI (CCRF-CEM leukemia): > 100 µM
TGI (EKVX NSCLC): > 100 µM
TGI (NCI-H23 lung): > 100 µM
TGI (OVCAR-4 ovarian): > 100 µM
TGI (RPMI-8226 leukemia): > 100 µM
TGI (SN12C renal): > 100 µM

N/C(=N\N=C/c1c(O)cc(O)cc1O)NO
TGI (A498 renal): > 100 µM
TGI (CAKI-1 renal): > 100 µM
TGI (CCRF-CEM leukemia): > 92.6 µM
TGI (EKVX NSCLC): > 94.5 µM
TGI (MCF7 breast): > 100 µM
TGI (NCI-H23 lung): > 100 µM
TGI (OVCAR-4 ovarian): > 100 µM
TGI (RPMI-8226 leukemia): > 100 µM
TGI (SN12C renal): > 100 µM

CC1(C)CC(=O)C2=C(C1)NC(=S)C(C#N)C2c1ccccc1 (stereo not drawn)
TGI (CAKI-1 renal): > 100 µM
TGI (CCRF-CEM leukemia): > 100 µM
TGI (EKVX NSCLC): > 100 µM
TGI (MCF7 breast): > 100 µM
TGI (MDA-MB-231 breast): > 100 µM
TGI (NCI-H23 lung): > 100 µM
TGI (OVCAR-4 ovarian): > 100 µM
TGI (SN12C renal): > 100 µM

CC(=O)N1CCOC12N=NC(C)(C)O2 (stereo not drawn)
TGI (A498 renal): > 100 µM
TGI (CAKI-1 renal): > 100 µM
TGI (EKVX NSCLC): > 100 µM
TGI (MCF7 breast): > 100 µM
TGI (MDA-MB-231 breast): > 100 µM
TGI (NCI-H23 lung): > 100 µM
TGI (OVCAR-4 ovarian): > 100 µM
TGI (RPMI-8226 leukemia): > 100 µM
TGI (SN12C renal): > 100 µM

COc1ccc(NCn2nc(CCCCCCCCc3nn(CNc4ccc(OC)cc4)c(=S)o3)oc2=S)cc1
TGI (A498 renal): > 100 µM
TGI (CAKI-1 renal): > 100 µM
TGI (EKVX NSCLC): > 100 µM
TGI (MCF7 breast): > 100 µM
TGI (MDA-MB-231 breast): > 100 µM
TGI (NCI-H23 lung): > 100 µM
TGI (OVCAR-4 ovarian): > 100 µM
TGI (RPMI-8226 leukemia): > 100 µM
TGI (SN12C renal): > 100 µM

CC(C)=CCNc1ncnc2c1ncn2CCC(=O)O
TGI (A498 renal): > 100 µM
TGI (CCRF-CEM leukemia): > 100 µM
TGI (MCF7 breast): > 100 µM
TGI (MDA-MB-231 breast): > 100 µM
TGI (NCI-H23 lung): > 100 µM
TGI (OVCAR-4 ovarian): > 100 µM
TGI (RPMI-8226 leukemia): > 100 µM
TGI (SN12C renal): > 100 µM

C=C1C(=O)OC2C[C@@]3(C)CCCC(=C)C3CC12 (stereo partly drawn)
TGI (A498 renal): 19.2 µM
TGI (CAKI-1 renal): 19.4 µM
TGI (CCRF-CEM leukemia): > 100 µM
TGI (EKVX NSCLC): 31.5 µM
TGI (NCI-H23 lung): 26.9 µM
TGI (OVCAR-4 ovarian): 26.6 µM
TGI (SN12C renal): 16.7 µM

CN1Cc2ccccc2C2(COc3ccccc3C2=O)C1 (stereo not drawn)
TGI (CAKI-1 renal): > 100 µM
TGI (CCRF-CEM leukemia): > 100 µM
TGI (EKVX NSCLC): > 100 µM
TGI (NCI-H23 lung): > 100 µM
TGI (OVCAR-4 ovarian): > 100 µM
TGI (RPMI-8226 leukemia): > 100 µM
TGI (SN12C renal): > 100 µM

C/C(=N\Nc1nc2cc(F)ccc2s1)c1ccccn1
TGI (A498 renal): > 100 µM
TGI (CAKI-1 renal): 5.67 µM
TGI (CCRF-CEM leukemia): > 100 µM
TGI (MCF7 breast): > 100 µM
TGI (MDA-MB-231 breast): > 45.1 µM
TGI (NCI-H23 lung): 2.23 µM
TGI (OVCAR-4 ovarian): 3.32 µM
TGI (RPMI-8226 leukemia): > 100 µM
TGI (SN12C renal): > 43.8 µM

COc1cc(/C=C2\N=C(c3ccccc3)N(c3cc4cc(Sc5ccccc5)ccc4[nH]3)C2=O)ccc1O
TGI (CAKI-1 renal): > 50 µM
TGI (CCRF-CEM leukemia): > 50 µM
TGI (EKVX NSCLC): > 50 µM
TGI (MCF7 breast): > 50 µM
TGI (NCI-H23 lung): > 50 µM
TGI (OVCAR-4 ovarian): > 50 µM
TGI (SN12C renal): > 50 µM

Cc1ccc(N2Cc3c(ccc4ccccc34)OP2(=S)N2CCCC2)cc1 (stereo not drawn)
TGI (A498 renal): > 100 µM
TGI (CAKI-1 renal): > 100 µM
TGI (CCRF-CEM leukemia): > 100 µM
TGI (EKVX NSCLC): > 100 µM
TGI (MCF7 breast): > 100 µM
TGI (NCI-H23 lung): > 100 µM
TGI (OVCAR-4 ovarian): > 100 µM
TGI (RPMI-8226 leukemia): > 100 µM
TGI (SN12C renal): > 100 µM

O=C(CCC(NC(=O)OCc1ccccc1)C(=O)OCc1ccccc1)Nc1cccc(OCc2ccccc2)c1 (stereo not drawn)
TGI (CAKI-1 renal): > 100 µM
TGI (CCRF-CEM leukemia): 99.4 µM
TGI (EKVX NSCLC): > 100 µM
TGI (MCF7 breast): 41.3 µM
TGI (MDA-MB-231 breast): 56.5 µM
TGI (NCI-H23 lung): 57.1 µM
TGI (OVCAR-4 ovarian): > 100 µM
TGI (SN12C renal): 46 µM

O=Cn1c2ccccc2c2ccccc21
TGI (A498 renal): > 100 µM
TGI (CCRF-CEM leukemia): > 100 µM
TGI (EKVX NSCLC): > 100 µM
TGI (NCI-H23 lung): > 100 µM
TGI (RPMI-8226 leukemia): > 100 µM
TGI (SN12C renal): > 100 µM
